Test results reported in patent publication US9611267B2, “Substituted tricyclic compounds as FGFR inhibitors” (Incyte Corporation, priority 2012, dated 2017).

Columns and labels:
Assay type in all cases: biochemical
FGFR1 = FGFR1 (Homo sapiens (Human), UniProt P11362); test: FGFR enzymatic assay (FRET peptide phosphorylation), FGFR1; conditions: FGFR1 enzyme 0.02 nM, ATP 210 μM
Method in brief: (§1)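 Recombinant kinase was pre-incubated 5–10 min with serially diluted inhibitor in HEPES buffer (10 mM MgCl2, 5 mM DTT, pH 7.5; buffer described for FGFR3). Peptide phosphorylation ran 1 h at 25 °C and was detected by FRET after ~1 h equilibration. IC50 values come from variable-slope sigmoidal fits.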

FGFR3 = FGFR3 (Homo sapiens (Human), UniProt P22607); test: FGFR enzymatic assay (FRET peptide phosphorylation), FGFR3; conditions: FGFR3 enzyme (Millipore), ATP 140 μM
Method in brief: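 FRET assay of peptide phosphorylation by FGFR3 in HEPES pH 7.5 buffer with MgCl2, EGTA, Tween-20 and DTT. Enzyme was pre-incubated 5-10 min with compound, and the reaction ran 1 hr at 25° C. IC50 came from a variable-slope sigmoidal fit.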

FGFR2 = FGFR2 (Homo sapiens (Human), UniProt P21802); test: FGFR enzymatic assay (FRET peptide phosphorylation), FGFR2; conditions: FGFR2 enzyme 0.01 nM, ATP 100 μM
Method in brief: as §1

Chain of FGFR2 (P21802 22-821): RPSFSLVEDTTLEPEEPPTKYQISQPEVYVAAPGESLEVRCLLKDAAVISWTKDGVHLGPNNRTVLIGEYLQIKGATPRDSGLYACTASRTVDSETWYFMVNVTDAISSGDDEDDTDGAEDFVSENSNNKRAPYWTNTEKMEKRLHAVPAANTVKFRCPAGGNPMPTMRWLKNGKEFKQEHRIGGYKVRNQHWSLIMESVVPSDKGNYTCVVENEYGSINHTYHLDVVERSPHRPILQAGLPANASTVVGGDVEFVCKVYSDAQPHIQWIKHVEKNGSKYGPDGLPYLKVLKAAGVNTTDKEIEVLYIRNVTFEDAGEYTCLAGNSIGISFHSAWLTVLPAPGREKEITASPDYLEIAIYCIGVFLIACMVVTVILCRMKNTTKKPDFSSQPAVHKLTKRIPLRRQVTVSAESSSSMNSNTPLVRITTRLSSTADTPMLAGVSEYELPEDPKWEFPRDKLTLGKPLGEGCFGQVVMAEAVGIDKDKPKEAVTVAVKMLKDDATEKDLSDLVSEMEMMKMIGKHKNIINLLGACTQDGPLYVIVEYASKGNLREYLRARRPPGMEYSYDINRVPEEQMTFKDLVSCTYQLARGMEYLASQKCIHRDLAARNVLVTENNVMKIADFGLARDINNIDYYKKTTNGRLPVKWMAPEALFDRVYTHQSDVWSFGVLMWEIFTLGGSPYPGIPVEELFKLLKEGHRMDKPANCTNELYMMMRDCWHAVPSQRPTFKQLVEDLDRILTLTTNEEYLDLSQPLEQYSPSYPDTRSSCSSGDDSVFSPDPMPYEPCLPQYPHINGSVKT
Chain of FGFR1 (P11362 22-822): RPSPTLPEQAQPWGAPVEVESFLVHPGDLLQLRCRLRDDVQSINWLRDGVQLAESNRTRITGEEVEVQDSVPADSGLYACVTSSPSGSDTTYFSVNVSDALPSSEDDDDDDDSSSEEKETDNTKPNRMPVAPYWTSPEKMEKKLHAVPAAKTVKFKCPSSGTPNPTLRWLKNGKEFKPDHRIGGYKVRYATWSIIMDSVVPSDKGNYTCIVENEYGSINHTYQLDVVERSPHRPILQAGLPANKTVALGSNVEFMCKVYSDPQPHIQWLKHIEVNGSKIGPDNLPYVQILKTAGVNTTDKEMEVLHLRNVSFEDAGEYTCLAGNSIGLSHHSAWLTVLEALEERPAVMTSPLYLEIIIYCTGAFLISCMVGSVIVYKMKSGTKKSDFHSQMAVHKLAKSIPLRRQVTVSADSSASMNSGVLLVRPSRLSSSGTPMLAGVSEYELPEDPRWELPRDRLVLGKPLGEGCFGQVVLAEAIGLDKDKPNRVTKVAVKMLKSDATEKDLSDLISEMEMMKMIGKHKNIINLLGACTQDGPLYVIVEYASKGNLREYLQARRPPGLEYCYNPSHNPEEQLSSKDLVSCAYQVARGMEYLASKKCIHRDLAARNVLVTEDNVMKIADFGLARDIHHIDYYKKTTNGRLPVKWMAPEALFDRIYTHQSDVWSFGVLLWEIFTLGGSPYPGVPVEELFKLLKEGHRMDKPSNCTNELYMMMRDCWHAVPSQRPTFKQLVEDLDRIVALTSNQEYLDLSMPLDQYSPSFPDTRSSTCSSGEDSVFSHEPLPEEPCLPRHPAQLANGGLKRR
Chain of FGFR3 (P22607 23-806): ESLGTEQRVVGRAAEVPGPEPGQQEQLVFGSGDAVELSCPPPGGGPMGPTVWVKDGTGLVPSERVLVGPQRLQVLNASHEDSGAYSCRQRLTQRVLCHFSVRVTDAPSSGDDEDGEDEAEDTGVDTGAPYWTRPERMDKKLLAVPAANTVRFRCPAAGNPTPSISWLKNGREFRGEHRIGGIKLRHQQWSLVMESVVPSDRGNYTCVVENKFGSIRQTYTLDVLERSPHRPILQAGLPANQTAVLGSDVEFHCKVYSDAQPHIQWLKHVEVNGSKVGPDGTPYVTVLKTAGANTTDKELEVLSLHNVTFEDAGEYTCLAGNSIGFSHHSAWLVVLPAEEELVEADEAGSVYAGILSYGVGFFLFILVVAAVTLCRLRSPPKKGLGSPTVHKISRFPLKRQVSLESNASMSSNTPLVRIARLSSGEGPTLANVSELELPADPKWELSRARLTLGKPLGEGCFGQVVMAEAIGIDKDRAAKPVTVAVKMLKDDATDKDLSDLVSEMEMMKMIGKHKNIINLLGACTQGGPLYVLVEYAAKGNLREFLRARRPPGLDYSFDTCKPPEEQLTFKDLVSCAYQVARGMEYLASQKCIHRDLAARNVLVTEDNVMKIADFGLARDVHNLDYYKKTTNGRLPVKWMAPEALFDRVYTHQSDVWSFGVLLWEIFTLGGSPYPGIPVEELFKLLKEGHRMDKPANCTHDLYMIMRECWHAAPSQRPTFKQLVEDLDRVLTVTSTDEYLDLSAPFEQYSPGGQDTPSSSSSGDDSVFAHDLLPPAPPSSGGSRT

Row | SMILES | IC50 (FGFR1) [nM] | IC50 (FGFR3) [nM] | IC50 (FGFR2) [nM]
1 | COCCn1cc(N2C(=O)N(c3c(F)c(OC)cc(OC)c3F)Cc3cnc4[nH]ncc4c32)cn1 [Example 174, 3-(2,6-difluoro-3,5-dimethoxyphenyl)-1-[1-(2-methoxyethyl)-1H-pyrazol-4-yl]-1,3,4,7-tetrahydro-2H-pyrazolo[4′,3′:5,6]pyrido[4,3-d]pyrimidin-2-one] | < 100 | < 100 | < 100
2 | COc1cc(OC)c(F)c(N2Cc3cnc4[nH]ncc4c3N(c3cnn(CC(F)F)c3)C2=O)c1F [Example 175, 3-(2,6-difluoro-3,5-dimethoxyphenyl)-1-[1-(2,2-difluoroethyl)-1H-pyrazol-4-yl]-1,3,4,7-tetrahydro-2H-pyrazolo[4′,3′:5,6]pyrido[4,3-d]pyrimidin-2-one] | < 100 | < 100 | < 100
3 | COc1cccc(CN2C(=O)N(c3c(F)c(OC)cc(OC)c3F)Cc3cnc4[nH]ncc4c32)n1 [Example 176, 3-(2,6-difluoro-3,5-dimethoxyphenyl)-1-[(6-methoxypyridin-2-yl)methyl]-1,3,4,7-tetrahydro-2H-pyrazolo[4′,3′:5,6]pyrido[4,3-d]pyrimidin-2-one] | < 100 | < 100 | < 100
4 | COc1cc(CN2C(=O)N(c3c(F)c(OC)cc(OC)c3F)Cc3cnc4[nH]ncc4c32)ccn1 [Example 177, 3-(2,6-difluoro-3,5-dimethoxyphenyl)-1-[(2-methoxypyridin-4-yl)methyl]-1,3,4,7-tetrahydro-2H-pyrazolo[4′,3′:5,6]pyrido[4,3-d]pyrimidin-2-one] | < 100 | < 100 | < 100
5 | COc1cc(OC)c(F)c(N2Cc3cnc4[nH]ncc4c3N(C[C@H]3CCOC3)C2=O)c1F [Example 178, 3-(2,6-difluoro-3,5-dimethoxyphenyl)-1-[(3R)-tetrahydrofuran-3-ylmethyl]-1,3,4,7-tetrahydro-2H-pyrazolo[4′,3′:5,6]pyrido[4,3-d]pyrimidin-2-one] | < 100 | < 100 | < 100
6 | COc1cc(OC)c(F)c(N2Cc3cnc4[nH]ncc4c3N(C[C@@H]3CCOC3)C2=O)c1F [Example 179, 3-(2,6-difluoro-3,5-dimethoxyphenyl)-1-[(3S)-tetrahydrofuran-3-ylmethyl]-1,3,4,7-tetrahydro-2H-pyrazolo[4′,3′:5,6]pyrido[4,3-d]pyrimidin-2-one] | < 100 | < 100 | < 100
7 | COc1cc(OC)c(F)c(N2Cc3cnc4[nH]c(CN5CCOCC5)cc4c3N(c3ccccc3F)C2=O)c1F [Example 180, 3-(2,6-difluoro-3,5-dimethoxyphenyl)-1-(2-fluorophenyl)-8-(morpholin-4-ylmethyl)-1,3,4,7-tetrahydro-2H-pyrrolo[3′,2′:5,6]pyrido[4,3-d]pyrimidin-2-one] | < 100 | < 100 | < 100
8 | CCN1CCN(Cc2cc3c4c(cnc3[nH]2)CN(c2c(F)c(OC)cc(OC)c2F)C(=O)N4c2ccccc2F)CC1 [Example 181, 3-(2,6-difluoro-3,5-dimethoxyphenyl)-8-[(4-ethylpiperazin-1-yl)methyl]-1-(2-fluorophenyl)-1,3,4,7-tetrahydro-2H-pyrrolo[3′,2′:5,6]pyrido[4,3-d]pyrimidin-2-one] | < 100 | < 100 | < 100
9 | COc1cc(OC)c(F)c(N2Cc3cnc4[nH]c(CN5CCOCC5)cc4c3N(C3CCC3)C2=O)c1F [Example 182, 1-cyclobutyl-3-(2,6-difluoro-3,5-dimethoxyphenyl)-8-(morpholin-4-ylmethyl)-1,3,4,7-tetrahydro-2H-pyrrolo[3′,2′:5,6]pyrido[4,3-d]pyrimidin-2-one] | < 100 | < 100 | < 100
10 | COc1cc(OC)c(F)c(N2Cc3cnc4[nH]c(CCN5CCOCC5)cc4c3N(C3CCC3)C2=O)c1F [Example 183, 1-cyclobutyl-3-(2,6-difluoro-3,5-dimethoxyphenyl)-8-(2-morpholin-4-ylethyl)-1,3,4,7-tetrahydro-2H-pyrrolo[3′,2′:5,6]pyrido[4,3-d]pyrimidin-2-one] | < 100 | < 100 | < 100
11 | CCCN1C(=O)N(c2c(F)c(OC)cc(OC)c2F)Cc2cnc3[nH]c(CN4CCOCC4)cc3c21 [Example 184, 3-(2,6-difluoro-3,5-dimethoxyphenyl)-8-(morpholin-4-ylmethyl)-1-propyl-1,3,4,7-tetrahydro-2H-pyrrolo[3′,2′:5,6]pyrido[4,3-d]pyrimidin-2-one] | < 100 | < 100 | < 100
12 | CCN1C(=O)N(c2c(F)c(OC)cc(OC)c2F)Cc2cnc3[nH]c(CCN4CCOCC4)cc3c21 [Example 185, 3-(2,6-difluoro-3,5-dimethoxyphenyl)-1-ethyl-8-(2-morpholin-4-ylethyl)-1,3,4,7-tetrahydro-2H-pyrrolo[3′,2′:5,6]pyrido[4,3-d]pyrimidin-2-one] | < 100 | < 100 | < 100
13 | COc1cc(OC)c(F)c(N2Cc3cnc4[nH]c(CN5CCOCC5)cc4c3N(C3CC3)C2=O)c1F [Example 186, 1-cyclopropyl-3-(2,6-difluoro-3,5-dimethoxyphenyl)-8-(morpholin-4-ylmethyl)-1,3,4,7-tetrahydro-2H-pyrrolo[3′,2′:5,6]pyrido[4,3-d]pyrimidin-2-one] | < 100 | < 100 | < 100

Next, values leading:

Row | IC50 (FGFR1) [nM] | IC50 (FGFR3) [nM] | IC50 (FGFR2) [nM] | SMILES
14 | < 100 | < 100 | < 100 | COc1cc(OC)c(F)c(N2Cc3cnc4[nH]c(CN5CCN(C)CC5)cc4c3N(C3CC3)C2=O)c1F [Example 187, 1-cyclopropyl-3-(2,6-difluoro-3,5-dimethoxyphenyl)-8-[(4-methylpiperazin-1-yl)methyl]-1,3,4,7-tetrahydro-2H-pyrrolo[3′,2′:5,6]pyrido[4,3-d]pyrimidin-2-one]
15 | < 100 | < 100 | < 100 | CCN1CCN(Cc2cc3c4c(cnc3[nH]2)CN(c2c(F)c(OC)cc(OC)c2F)C(=O)N4C2CC2)CC1 [Example 188, 1-cyclopropyl-3-(2,6-difluoro-3,5-dimethoxyphenyl)-8-[(4-ethylpiperazin-1-yl)methyl]-1,3,4,7-tetrahydro-2H-pyrrolo[3′,2′:5,6]pyrido[4,3-d]pyrimidin-2-one]
16 | < 100 | < 100 | < 100 | COc1cc(OC)c(F)c(N2Cc3cnc4[nH]c(CN5CCOCC5)cc4c3N(c3ccc(F)cc3)C2=O)c1F [Example 189, 3-(2,6-difluoro-3,5-dimethoxyphenyl)-1-(4-fluorophenyl)-8-(morpholin-4-ylmethyl)-1,3,4,7-tetrahydro-2H-pyrrolo[3′,2′:5,6]pyrido[4,3-d]pyrimidin-2-one]
17 | < 100 | < 100 | < 100 | COc1cc(OC)c(F)c(N2Cc3cnc4[nH]c(CN5CCN(C)CC5)cc4c3N(c3ccc(F)cc3)C2=O)c1F [Example 190, 3-(2,6-difluoro-3,5-dimethoxyphenyl)-1-(4-fluorophenyl)-8-[(4-methylpiperazin-1-yl)methyl]-1,3,4,7-tetrahydro-2H-pyrrolo[3′,2′:5,6]pyrido[4,3-d]pyrimidin-2-one]
18 | < 100 | < 100 | < 100 | CCN1CCN(Cc2cc3c4c(cnc3[nH]2)CN(c2c(F)c(OC)cc(OC)c2F)C(=O)N4c2ccc(F)cc2)CC1 [Example 191, 3-(2,6-difluoro-3,5-dimethoxyphenyl)-1-(4-fluorophenyl)-8-[(4-ethylpiperazin-1-yl)methyl]-1,3,4,7-tetrahydro-2H-pyrrolo[3′,2′:5,6]pyrido[4,3-d]pyrimidin-2-one]
19 | < 100 | < 100 | < 100 | COc1cc(OC)c(F)c(N2Cc3cnc4[nH]c(CN5CCN(C)CC5)cc4c3N(c3cccc(F)c3F)C2=O)c1F [Example 192, 3-(2,6-difluoro-3,5-dimethoxyphenyl)-1-(2,3-difluorophenyl)-8-[(4-methylpiperazin-1-yl)methyl]-1,3,4,7-tetrahydro-2H-pyrrolo[3′,2′:5,6]pyrido[4,3-d]pyrimidin-2-one]
20 | < 100 | < 100 | < 100 | CCN1CCN(Cc2cc3c4c(cnc3[nH]2)CN(c2c(F)c(OC)cc(OC)c2F)C(=O)N4c2cccc(F)c2F)CC1 [Example 193, 3-(2,6-difluoro-3,5-dimethoxyphenyl)-1-(2,3-difluorophenyl)-8-[(4-ethylpiperazin-1-yl)methyl]-1,3,4,7-tetrahydro-2H-pyrrolo[3′,2′:5,6]pyrido[4,3-d]pyrimidin-2-one]
21 | < 100 | < 100 | < 100 | COc1cc(OC)c(F)c(N2Cc3cnc4[nH]c(CN5CCOCC5)cc4c3N(c3ccncc3)C2=O)c1F [Example 194, 3-(2,6-difluoro-3,5-dimethoxyphenyl)-8-(morpholin-4-ylmethyl)-1-pyridin-4-yl-1,3,4,7-tetrahydro-2H-pyrrolo[3′,2′:5,6]pyrido[4,3-d]pyrimidin-2-one]
22 | < 100 | < 100 | < 100 | COc1cc(OC)c(F)c(N2Cc3cnc4[nH]c(CN5CCN(C)CC5)cc4c3N(c3ccncc3)C2=O)c1F [Example 195, 3-(2,6-difluoro-3,5-dimethoxyphenyl)-8-[(4-methylpiperazin-1-yl)methyl]-1-pyridin-4-yl-1,3,4,7-tetrahydro-2H-pyrrolo[3′,2′:5,6]pyrido[4,3-d]pyrimidin-2-one]
